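Following 48 hours of exposure in 96-well plates, responses at five concentrations were used to interpolate endpoints linearly. GI50 is the concentration that inhibits growth by half.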 Activity calls are given as the source filed them. Cut-off read from the data, not from the text of the source: active = GI50 up to about 1.1 µM and inactive = higher.
Columns and labels:
Assay in all cases: inhibition of tumour cell growth, NCI panel, 48 h
ACHN = test system: ACHN
NCI-H460 = test system: NCI-H460
K562 = test system: K562
NCI-H23 = test system: NCI-H23
CAKI-1 = test system: CAKI-1
SN12C = test system: SN12C
OVCAR-3 = test system: OVCAR-3
KM12 = test system: KM12
CCRF-CEM = test system: CCRF-CEM
SR = test system: SR
SF-539 = test system: SF-539
SF-268 = test system: SF-268
HOP-92 = test system: HOP-92
OVCAR-8 = test system: OVCAR-8
IGROV-1 = test system: IGROV-1
HCT-116 = test system: HCT-116
NCI/ADR-RES = test system: NCI/ADR-RES
Malme-3M = test system: Malme-3M
RPMI-8226 = test system: RPMI-8226
SK-MEL-2 = test system: SK-MEL-2

Measured: GI50

OC1(c2cc3ccccc3s2)CCCCC1
inactive: ACHN 69 µM | NCI-H460 44.2 µM | K562 34.4 µM | NCI-H23 46.6 µM | CAKI-1 > 100 µM | SN12C 30.9 µM | OVCAR-3 30.1 µM | KM12 41.3 µM | CCRF-CEM 21.4 µM | SR 38.4 µM | SF-539 > 100 µM | SF-268 29.2 µM | HOP-92 18 µM | OVCAR-8 42.6 µM | IGROV-1 87.5 µM | HCT-116 33.3 µM | NCI/ADR-RES 47.2 µM

Fc1cc(-c2ncc(Cl)cc2Cl)c2cccccc1-2
inactive: ACHN > 100 µM | NCI-H460 > 100 µM | NCI-H23 > 100 µM | CAKI-1 > 100 µM | Malme-3M > 100 µM | OVCAR-3 > 100 µM | KM12 > 100 µM | SF-539 > 100 µM | SF-268 > 100 µM | OVCAR-8 > 100 µM | IGROV-1 > 100 µM | HCT-116 > 100 µM | NCI/ADR-RES > 100 µM

Nc1nc(CCl)nc(N2CCOCC2)n1
inactive: ACHN 16.6 µM | RPMI-8226 32.4 µM | NCI-H460 17.7 µM | K562 23.4 µM | NCI-H23 17.8 µM | CAKI-1 16.5 µM | SN12C 36.1 µM | SK-MEL-2 > 100 µM | OVCAR-3 > 10 µM | KM12 32.1 µM | CCRF-CEM 18.6 µM | SR 21.3 µM | SF-539 22.8 µM | SF-268 33.7 µM | HOP-92 16.8 µM | OVCAR-8 34.8 µM | IGROV-1 14.3 µM | HCT-116 21.5 µM | NCI/ADR-RES 29.4 µM

CC1C(c2ccc(F)cc2)c2cc3c(cc2OC1N1CCCC1)OCO3 (stereo unspecified)
inactive: ACHN 27.7 µM | RPMI-8226 > 10 µM | K562 42 µM | NCI-H23 64.9 µM | CAKI-1 16.7 µM | SN12C 80.4 µM | SK-MEL-2 89.3 µM | OVCAR-3 43.7 µM | KM12 42.5 µM | CCRF-CEM 30.8 µM | SR 35.2 µM | SF-539 30.4 µM | SF-268 36.8 µM | HOP-92 15.5 µM | OVCAR-8 55.1 µM | IGROV-1 42.2 µM | HCT-116 30.6 µM | NCI/ADR-RES 43.6 µM

COc1cc2c(c(OC)c1OC)-c1c(cc3c(c1OC)OCO3)CC(C)C(C)(O)C2OC(=O)c1ccccc1 (stereo unspecified)
inactive: ACHN 32 µM | RPMI-8226 22 µM | NCI-H460 33.3 µM | K562 46.3 µM | NCI-H23 45.4 µM | CAKI-1 33 µM | Malme-3M 45.5 µM | SN12C 40.5 µM | SK-MEL-2 25 µM | OVCAR-3 29.9 µM | KM12 41.1 µM | CCRF-CEM 25.9 µM | SR 17.7 µM | SF-539 > 100 µM | SF-268 53.5 µM | HOP-92 12.2 µM | OVCAR-8 40.6 µM | IGROV-1 38.3 µM | HCT-116 31.4 µM

CC1=NN(c2cccc(Cl)c2)C2(C1=Cc1ccc(N(C)C)cc1)C(Cl)C(=O)N2c1nc2ccccc2s1 (stereo unspecified)
inactive: ACHN 53.2 µM | RPMI-8226 41 µM | NCI-H460 > 100 µM | K562 56.9 µM | NCI-H23 45.5 µM | CAKI-1 72.9 µM | SK-MEL-2 60.3 µM | OVCAR-3 39.5 µM | KM12 3.95 µM | CCRF-CEM 50.5 µM | SR > 100 µM | SF-539 49.1 µM | SF-268 20.3 µM | HOP-92 18.6 µM | OVCAR-8 73.3 µM | IGROV-1 40.7 µM | HCT-116 60 µM | NCI/ADR-RES 63.5 µM

CCCCCCCCCCCC(=O)OCC1OC(n2cc(F)c(=O)[nH]c2=O)C(NC(=O)OCc2ccccc2)C(O)C1O (stereo unspecified)
inactive: ACHN 57.4 µM | RPMI-8226 19.4 µM | NCI-H460 17.6 µM | K562 21.7 µM | NCI-H23 35.3 µM | CAKI-1 32.6 µM | Malme-3M 21 µM | SN12C 18.5 µM | SK-MEL-2 19.1 µM | OVCAR-3 25 µM | KM12 21.3 µM | CCRF-CEM 17.6 µM | SR 19.1 µM | SF-539 22 µM | SF-268 39.5 µM | HOP-92 22.4 µM | OVCAR-8 21.2 µM | IGROV-1 > 100 µM | HCT-116 16.7 µM

CCO/C=N/NC(=O)CSc1nc2ccc(I)cc2c(=O)n1Cc1ccccc1
inactive: ACHN > 100 µM | RPMI-8226 49.3 µM | NCI-H460 28.8 µM | K562 11 µM | NCI-H23 36.9 µM | CAKI-1 > 100 µM | SN12C 84.5 µM | SK-MEL-2 21.7 µM | OVCAR-3 60 µM | KM12 46.9 µM | CCRF-CEM 23 µM | SR 33.7 µM | SF-539 53.8 µM | SF-268 44.3 µM | HOP-92 83.6 µM | OVCAR-8 87.5 µM | IGROV-1 39 µM | HCT-116 28.8 µM | NCI/ADR-RES > 100 µM

COc1cc([C@H]2c3cc(O)c(OC)cc3C[C@]3(O)[C@@H]2CO[C@@H]3O)ccc1O
inactive: ACHN > 100 µM | RPMI-8226 > 100 µM | NCI-H460 > 100 µM | K562 > 100 µM | NCI-H23 > 100 µM | CAKI-1 > 100 µM | SN12C > 100 µM | SK-MEL-2 > 100 µM | OVCAR-3 > 100 µM | KM12 > 100 µM | CCRF-CEM > 100 µM | SR > 100 µM | SF-539 > 100 µM | SF-268 > 100 µM | HOP-92 > 100 µM | OVCAR-8 > 100 µM | IGROV-1 > 100 µM | HCT-116 > 100 µM | NCI/ADR-RES > 100 µM

CC1=C(/C(C)=N/NS(=O)(=O)c2ccc(C)cc2)Sc2ccccc2N1
inactive: ACHN > 100 µM | RPMI-8226 56.8 µM | NCI-H460 > 100 µM | K562 37.7 µM | NCI-H23 89.3 µM | CAKI-1 > 100 µM | Malme-3M 77.3 µM | SN12C > 100 µM | SK-MEL-2 94.2 µM | OVCAR-3 58.2 µM | KM12 > 100 µM | CCRF-CEM 32.9 µM | SR 59.7 µM | SF-539 > 100 µM | SF-268 > 100 µM | HOP-92 81.8 µM | OVCAR-8 > 100 µM | IGROV-1 > 100 µM | HCT-116 > 100 µM

COc1ccc(C)cc1NC(=S)C#N
inactive: ACHN 30.3 µM | RPMI-8226 74.8 µM | K562 > 100 µM | NCI-H23 33.3 µM | CAKI-1 > 100 µM | SN12C > 100 µM | SK-MEL-2 29.2 µM | OVCAR-3 27.1 µM | KM12 36.2 µM | CCRF-CEM 71 µM | SF-539 33.1 µM | SF-268 27.5 µM | HOP-92 > 100 µM | OVCAR-8 27.9 µM | HCT-116 > 100 µM | NCI/ADR-RES 27.4 µM

From ChEMBL document CHEMBL1201862, “PubChem BioAssay data set” (2004)
